ChEMBL document CHEMBL2401704, “Inhibition of rhodesain as a novel therapeutic modality for human African trypanosomiasis” (J Med Chem, 2013)
Converted amounts (≈) assume the structure as drawn. Each block holds one compound with its values, some of them ahead of it. Residues, ends and D or L forms follow the SMILES beside them. *: point of attachment. Cbz = O=C(OCc1ccccc1)*

How the values were obtained:
[1] = Selectivity index, ratio of ED50 for human HL60 cells to ED50 for Trypanosoma brucei brucei; format: toxicity, cell-based, HL-60; conditions: read-out: Ratio ED50
[2] = tested on: Trypanosoma brucei brucei; test: Antitrypanosomal activity against blood stream form of Trypanosoma brucei brucei; format: functional, organism-based; conditions: for EC50: read-out: ED50 (the source's name)
[3] = tested on: Trypanosoma brucei; test: Inhibition of Trypanosoma brucei rhodesain assessed as second order rate constant
[4] = Cytotoxicity against human HL60 cells; format: cell-based, HL-60; conditions: for CC50: read-out: ED50 (the source's name); for MCC: read-out: MIC
[5] = Inhibition of cathepsin B (unknown origin); design: species or system Homo sapiens
[6] = biological target: T1, Papain (Carica papaya, UniProt P00784); test: Inhibition of papaya papain
T1 sequence (P00784 whole entry): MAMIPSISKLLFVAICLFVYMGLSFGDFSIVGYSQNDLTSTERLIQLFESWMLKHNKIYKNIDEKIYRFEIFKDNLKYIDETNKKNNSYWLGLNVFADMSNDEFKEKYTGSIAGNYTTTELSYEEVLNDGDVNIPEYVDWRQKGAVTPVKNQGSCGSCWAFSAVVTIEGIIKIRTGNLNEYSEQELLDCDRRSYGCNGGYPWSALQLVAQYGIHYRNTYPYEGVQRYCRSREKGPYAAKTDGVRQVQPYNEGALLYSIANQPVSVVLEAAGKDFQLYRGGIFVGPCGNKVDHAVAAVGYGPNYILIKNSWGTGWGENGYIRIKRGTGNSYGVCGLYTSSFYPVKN

[7] = biological target: Cruzipain (Trypanosoma cruzi, UniProt P25779); test: Inhibition of Trypanosoma cruzi cruzain
[8] = Inhibition of Trypanosoma brucei rhodesain
[9] = biological target: Trypsin (Homo sapiens, UniProt P07477+P07478+P35030); test: Inhibition of trypsin (unknown origin); format: protein assay
[10] = biological target: Rhodesain (Trypanosoma brucei rhodesiense, UniProt Q95PM0); test: Inhibition of Trypanosoma brucei rhodesiense rhodesain
[11] = tested on: L6; test: Cytotoxicity against rat L6 cells; format: cell-based
[12] = tested on: Trypanosoma brucei rhodesiense; test: Antitrypanosomal activity against Trypanosoma brucei rhodesiense; format: functional, organism-based
[13] = Inhibition of Plasmodium falciparum Falcipain 2
[14] = tested on: Plasmodium falciparum; test: Antiprotozoal activity against Plasmodium falciparum; format: functional, organism-based
[15] = tested on: Trypanosoma brucei brucei; test: Antitrypanosomal activity against procyclic form of Trypanosoma brucei brucei; format: functional; conditions: read-out: ED50 (the source's name)
[16] = Inhibition of Trypanosoma brucei recombinant rhodesain
[17] = Oral bioavailability in Sprague-Dawley rat; format: ADME, organism-based; conditions: in vivo

Sequence of Cruzipain (P25779 whole entry): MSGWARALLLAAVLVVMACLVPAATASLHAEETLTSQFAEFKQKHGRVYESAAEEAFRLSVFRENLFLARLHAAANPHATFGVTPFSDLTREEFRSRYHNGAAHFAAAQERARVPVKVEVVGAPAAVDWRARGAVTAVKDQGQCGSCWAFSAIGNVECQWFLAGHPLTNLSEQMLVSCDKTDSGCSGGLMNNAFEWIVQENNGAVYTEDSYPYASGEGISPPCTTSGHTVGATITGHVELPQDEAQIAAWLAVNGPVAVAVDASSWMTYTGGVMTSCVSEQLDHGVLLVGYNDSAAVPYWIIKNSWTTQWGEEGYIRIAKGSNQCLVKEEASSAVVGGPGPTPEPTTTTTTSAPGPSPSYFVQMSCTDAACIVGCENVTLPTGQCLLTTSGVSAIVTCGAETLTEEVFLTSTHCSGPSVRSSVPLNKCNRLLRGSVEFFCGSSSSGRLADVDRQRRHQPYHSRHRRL
Sequence of Rhodesain (Q95PM0 whole entry): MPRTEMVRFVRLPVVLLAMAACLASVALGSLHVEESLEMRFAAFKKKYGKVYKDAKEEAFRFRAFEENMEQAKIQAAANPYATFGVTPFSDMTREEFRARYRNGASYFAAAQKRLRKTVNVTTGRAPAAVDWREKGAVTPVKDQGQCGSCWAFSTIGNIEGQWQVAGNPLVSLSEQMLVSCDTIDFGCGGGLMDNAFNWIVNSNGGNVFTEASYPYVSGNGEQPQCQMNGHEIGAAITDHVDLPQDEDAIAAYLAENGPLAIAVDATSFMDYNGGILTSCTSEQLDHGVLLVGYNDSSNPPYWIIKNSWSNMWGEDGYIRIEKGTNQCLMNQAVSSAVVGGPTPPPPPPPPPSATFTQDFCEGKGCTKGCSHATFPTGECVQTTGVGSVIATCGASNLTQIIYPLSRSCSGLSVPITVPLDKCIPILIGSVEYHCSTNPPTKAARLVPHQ

- K [3]: 3.54 ×10⁷ /M/min
- MIC [2]: 10 µM (≈ 4.92 µg/mL)
- EC50 [2]: 18 nM
Structure (SMILES): CC[C@H](C)[C@H](NS(=O)(=O)c1cccc2ccccc12)C(=O)N[C@H](C=O)Cc1c[nH]c2ccccc12
- CC50 [4]: 21000 nM
- MCC [4]: > 100 µM
- selectivity ratio [1]: 1150

- EC50 [15]: 400 nM
- EC50 [2]: 1100 nM
Structure (SMILES): CN(C(=O)[C@H](Cc1ccccc1)NC(=O)OCc1ccccc1)N(C#N)Cc1ccccc1
- IC50 [16]: 0.19 nM

- IC50 [5]: 11000 nM
- IC50 [6]: > 50000 nM
- IC50 [7]: 3100 nM
- IC50 [9]: > 50000 nM
Structure (SMILES): Cn1nc(C(F)(F)F)cc1-c1ccc(NC(=O)Nc2cccc(C(F)(F)F)c2)s1
- IC50 [8]: 3000 nM

- IC50 [5]: 10700 nM
- IC50 [6]: > 50000 nM
- IC50 [7]: 1900 nM
- IC50 [9]: > 50000 nM
Structure (SMILES): CCOC(=O)c1ccc(NC(=S)NC(=O)c2ccc(Cl)c(Cl)c2)cc1
- IC50 [8]: 2000 nM

- EC50 [15]: 700 nM
- EC50 [2]: 1200 nM
Structure (SMILES): CN(C(=O)[C@H](Cc1ccccc1)NC(=O)OCc1ccccc1)N(C#N)CCCc1ccccc1
- IC50 [16]: 2 nM

The next lines start with the compound.

Structure (SMILES): Cc1ccc(C(=O)Nc2ccc(S(=O)(=O)O)c3cc(S(=O)(=O)O)cc(S(=O)(=O)O)c23)cc1NC(=O)c1cccc(NC(=O)Nc2cccc(C(=O)Nc3cc(C(=O)Nc4ccc(S(=O)(=O)O)c5cc(S(=O)(=O)O)cc(S(=O)(=O)O)c45)ccc3C)c2)c1 [SURAMIN]
- selectivity ratio [1]: 1900
- EC50 [2]: 130 nM

Structure (SMILES): O=C(Nc1ccc(Cl)cc1)Nc1csc(-c2ccc(C(F)(F)F)cc2)n1
- IC50 [5]: 10800 nM
- IC50 [6]: > 50000 nM
- IC50 [7]: 1200 nM
- IC50 [8]: 2000 nM
- IC50 [9]: > 50000 nM

Structure (SMILES): CCN(c1nc(C#N)nc(N2CCOCC2)n1)C1CCCCC1
- Ki [10]: 100 nM
- IC50 [11]: 45500 nM
- IC50 [12]: 44100 nM
- Ki [13]: 80 nM
- IC50 [14]: > 5000 nM

Structure (SMILES): CCCCCN(C#N)N(C)C(=O)[C@H](Cc1ccccc1)NC(=O)OCc1ccccc1
- EC50 [15]: 700 nM
- IC50 [16]: 0.06 nM
- EC50 [2]: 1400 nM

Structure (SMILES): CCCC1CCC(N(Cc2ccc3c(c2)OCO3)c2nc(C#N)nc(N3CCOCC3)n2)CC1 (configuration not stated)
- Ki [10]: 2 nM
- IC50 [11]: 5900 nM
- IC50 [12]: 31200 nM
- Ki [13]: 1030 nM
- IC50 [14]: 2400 nM

Structure (SMILES): O=C(N[C@H](/C=C/S(=O)(=O)c1ccccc1)CCc1ccccc1)[C@H](Cc1ccccc1)NC(=O)N1CCOCC1
- bioavailability [17]: 3%
- EC50 [15]: 7300 nM
- IC50 [16]: 0.36 nM
- EC50 [2]: 5600 nM

Structure (SMILES): CS(=O)(=O)c1sc(C(=O)NC(=S)Nc2ccc(OC(F)(F)F)cc2)c2ccccc12
- IC50 [5]: 11000 nM
- IC50 [6]: > 50000 nM
- IC50 [7]: 6900 nM
- IC50 [8]: 4200 nM
- IC50 [9]: > 50000 nM

Structure (SMILES): O=C[C@H](Cc1ccc(O)cc1)NC(=O)[C@H](Cc1ccccc1)NC(=O)OCc1ccccc1 (Cbz-Phe-Tyr-aldehyde)
- K [3]: 1.38 ×10⁸ /M/min
- CC50 [4]: 21500 nM
- MCC [4]: > 100 µM
- selectivity ratio [1]: 482
- MIC [2]: 100 µM (≈ 44.7 µg/mL)
- EC50 [2]: 45 nM

Structure (SMILES): CN1CCN(C(=O)N[C@@H](Cc2ccccc2)C(=O)N[C@H](/C=C/S(=O)(=O)c2ccccc2)CCc2ccccc2)CC1 [K-777]
- K [3]: 9 ×10⁶ /M/min
- bioavailability [17]: 19.9%
- EC50 [15]: 5800 nM
- IC50 [16]: 0.35 nM
- EC50 [2]: 900 nM

Structure (SMILES): N#Cc1nc(N2CCOCC2)nc(N(c2ccccc2)c2ccccc2)n1
- Ki [10]: 36 nM
- IC50 [11]: 22000 nM
- IC50 [12]: 18900 nM
- Ki [13]: 42 nM
- IC50 [14]: > 5000 nM

Structure (SMILES): N#Cc1nc(N2CCOCC2)nc(N(Cc2ccc3c(c2)OCO3)C2CCCCC2)n1
- Ki [10]: 8 nM
- IC50 [11]: 11100 nM
- IC50 [12]: 30100 nM
- Ki [13]: 20 nM
- IC50 [14]: 2900 nM
